One assay concerns the target PAFR (Homo sapiens, UniProt P25105). As to the kind of experiment: cellular HTRF IP1 assay: inhibition of PAFR activation by PAF C-16 ligand (endpoint assay). The class given is cell-based. More on the design: expressed in transfected cells; host or cells: HEK293. The following applies: HEK293 cells overexpressing human PAFR; PAF ligand 11 nM; Table 2. On the procedure:
The ability of compounds of formula (I) to inhibit the activation of the PAF receptor (PAFR) by the PAF C-16 ligand (PAF) is determined using the following cellular HTRF IP1 assay (IP1 Gq assay kit from Cisbio, Cat. no.: 62IP1APEJ) in assay buffer (1×HBSS, 20 mM Hepes, pH 7.4, 50 mM LiCl and containing 0.1% (w/v) BSA):
Evaluation of the Inhibition of PAFR Activation Using an Endpoint Assay
HEK293 cells overexpressing human PAFR (produced in-house) are seeded into a Poly-D-Lysine coated 384 well white cell culture microtiter assay plate with lid (15.000 cells per well). Subsequently, the plates are incubated over night at 37° C./5% CO2. On the next day, cells are being washed and subsequently, various concentrations of the test compounds (compounds in 100% DMSO; final concentration of DMSO in wells is 1%) are added to the assay plate via Echo 555 acoustic liquid handler. Plates are then incubated with lid for 90 minutes at 37° C./5% CO2. Thereafter, PAF ligand (Cayman Chemical Company, Item no.: 60900) is added at a final concentration of 11 nM. Plates are then incubated with lid for 60 minutes at 37° C./5% CO2. Then, 5 μl per well of Anti-IP1-Antibody-Cryptate solution and 5 μl per well of IP1-d2 solution are added to all wells of the plate and the plate is incubated for another 60 minutes light protected at room temperature. The emissions at 620 nm and 665 nm (Excitation wavelength: 320 nm) are measured using an Envision Reader (PerkinElmer).
In general terms: Time-resolved FRET reads energy transfer from a long-lived donor to a nearby acceptor.
PAFR, sequence (P25105 whole entry): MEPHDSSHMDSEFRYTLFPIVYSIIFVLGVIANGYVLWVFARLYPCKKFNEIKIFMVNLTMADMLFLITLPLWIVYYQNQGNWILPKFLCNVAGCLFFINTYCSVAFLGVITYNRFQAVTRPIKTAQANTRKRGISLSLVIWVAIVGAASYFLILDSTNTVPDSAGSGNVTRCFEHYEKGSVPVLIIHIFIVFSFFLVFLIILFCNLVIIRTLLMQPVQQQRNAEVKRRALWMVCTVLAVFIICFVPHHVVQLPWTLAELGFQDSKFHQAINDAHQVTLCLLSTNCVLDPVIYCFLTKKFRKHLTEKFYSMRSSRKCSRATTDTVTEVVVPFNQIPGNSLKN
As usually defined, the IC50 is the point on the concentration scale where inhibition reaches its midpoint. A low value points to inhibition by little substance. In turn, `Cc1nnc2n1-c1sc3c(c1C(c1ccccc1Cl)=NC21CC1)C[C@H](C(=O)N1C[C@@H](C)O[C@H](C)C1)C3` [Example 123, (13′S)-9′-(2-chlorophenyl)-13′-[(2R,6R)-2,6-dimethylmorpholine-4-carbonyl]-3′-methyl-16′-thia-2′,4′,5′,8′-tetraazaspiro[cyclopropane-1,7′-tetracyclo[8.6.0.02,6.011,15]hexadecane]-1′(10′),3′,5′,8′,11′(15′)-pentaene] showed an IC50 of 5 nM.

`CCN(C(=O)[C@@H]1Cc2sc3c(c2C1)C(c1ccccc1Cl)=NC1(CC1)c1nnc(C)n1-3)[C@H]1CC[C@H](O)CC1` [Example 20]: the IC50 came to 11 nM. This IC50 is about 2.2-fold higher than that of the compound before.

Regarding `Cc1nnc2n1-c1sc3c(c1C(c1ccccc1Cl)=NC21CC1)C[C@H](C(=O)NC1CCc2cccnc21)C3` (some centres unmarked) [Example 42], it took 7 nM to reach half-maximal inhibition (IC50).

Compound `Cc1nnc2n1-c1sc3c(c1C(c1ccccc1Cl)=NC21CC1)C[C@H](C(=O)NCC1CC1)C3` [Example 68] yielded an IC50 of 1.9 nM.

For `Cc1nnc2n1-c1sc3c(c1C(c1ccccc1Cl)=NC21CC1)C[C@H](C(=O)NC12CC(C1)C2)C3` [Example 1, (13′S)—N-{bicyclo[1.1.1]pentan-1-yl}-9′-(2-chlorophenyl)-3′-methyl-16′-thia-2′,4′,5′,8′-tetraazaspiro[cyclopropane-1,7′-tetracyclo[8.6.0.0^2,6.0^11,15]hexadecane]-1′(10′),3′,5′,8′,11′(15′)-pentaene-13′-carboxamide], the IC50 stood at 1.3 nM.

For the compound `Cc1nnc2n1-c1sc3c(c1C(c1ccccc1Cl)=NC21CC1)C[C@H](C(=O)N[C@@H](C)CF)C3` [Example 125], the IC50 was 5.8 nM. Against the preceding compound, the IC50 is about 4.5-fold higher.

Turning to `Cc1nnc2n1-c1sc3c(c1C(c1ccccc1Cl)=NC21CC1)C[C@H](C(=O)N[C@@H]1c2ccccc2C[C@@H]1O)C3` [Example 50], it took 2.4 nM to reach half-maximal inhibition (IC50).

On to `Cc1nnc2n1-c1sc3c(c1C(c1ccccc1Cl)=NC21CC1)C[C@H](C(=O)NC1(C)CC1)C3` [Example 18], for which the IC50 stood at 3.4 nM.

In turn, `Cc1nnc2n1-c1sc3c(c1C(c1ccccc1Cl)=NC21CC1)C[C@H](C(=O)N[C@@H]1COCC(F)(F)C1)C3` [Example 110] showed an IC50 of 4.3 nM.

In the case of `Cc1nnc2n1-c1sc3c(c1C(c1ccccc1Cl)=NC21CC1)C[C@H](C(=O)N[C@H]1CCc2ccccc2C1)C3` [Example 58], 0.4 nM corresponded to half-maximal inhibition (IC50).

Regarding `CCN(C(=O)[C@@H]1Cc2sc3c(c2C1)C(c1ccccc1Cl)=NC1(CC1)c1nnc(C)n1-3)[C@@H]1c2ccccc2C[C@H]1O` [Example 81], the IC50 came to 3.6 nM.

As to `Cc1nnc2n1-c1sc3c(c1C(c1ccccc1Cl)=NC21CC1)C[C@H](C(=O)N[C@H]1CCN(c2ncccn2)C1)C3` [Example 62], the midpoint of inhibition, the IC50, lay at 6.5 nM.

On to `Cc1nnc2n1-c1sc3c(c1C(c1ccccc1Cl)=NC21CC1)C[C@H](C(=O)N1CC2(CCCO2)C1)C3` [Example 126, (13′S)-9′-(2-chlorophenyl)-3′-methyl-13′-{5-oxa-2-azaspiro[3.4]octane-2-carbonyl}-16′-thia-2′,4′,5′,8′-tetraazaspiro[cyclopropane-1,7′-tetracyclo[8.6.0.0^2,6.0^11,15]hexadecane]-1′(10′),3′,5′,8′,11′(15′)-pentaene], for which the IC50 is 9.4 nM.

For the compound `Cc1nnc2n1-c1sc3c(c1C(c1ccccc1Cl)=NC21CC1)C[C@H](C(=O)NC1CCC1)C3` [Example 7, (13′S)-9′-(2-chlorophenyl)-N-cyclobutyl-3′-methyl-16′-thia-2′,4′,5′,8′-tetraazaspiro-[cyclopropane-1,7′-tetracyclo[8.6.0.0^2,6.0^11,15]-hexadecane]-1′(10′),3′,5′,8′,11′(15′)-pentaene-13′-carboxamide], the IC50 worked out at 1.7 nM.

With `Cc1nnc2n1-c1sc3c(c1C(c1ccccc1Cl)=NC21CC1)C[C@H](C(=O)N[C@H]1CCc2ccccc21)C3` [Example 82], the IC50 amounted to 1.5 nM.

For `Cc1nnc2n1-c1sc3c(c1C(c1ccccc1Cl)=NC21CC1)C[C@H](C(=O)N1CCOC(C)(C)C1)C3` [Example 10], the IC50 came to 5.2 nM. This IC50 is about 3.5-fold higher than that of the compound before.

On to `Cc1nnc2n1-c1sc3c(c1C(c1ccccc1Cl)=NC21CC1)C[C@H](C(=O)NC1CCC(C)(C)OC1)C3` (some centres unmarked) [Example 94], for which the IC50 worked out at 6.4 nM. This IC50 and that of the compound before are within 1.5-fold of each other.

In the case of `Cc1nnc2n1-c1sc3c(c1C(c1ccccc1Cl)=NC21CC1)C[C@H](C(=O)NC1Cc2ccccc2C1)C3` [Example 31], the IC50 stood at 0.9 nM.

Regarding `Cc1nnc2n1-c1sc3c(c1C(c1ccccc1Cl)=NC21CC1)C[C@H](C(=O)NC1CCCC1)C3` [Example 14], half-maximal inhibition (IC50) required 1.9 nM.

`Cc1nnc2n1-c1sc3c(c1C(c1ccccc1Cl)=NC21CC1)C[C@H](C(=O)NC1CCc2cnn(C)c2C1)C3` (some centres unmarked) [Example 54]: the half-maximal inhibitory concentration (IC50) turned out to be 6.6 nM.

Compound `Cc1nnc2n1-c1sc3c(c1C(c1ccccc1Cl)=NC21CC1)C[C@H](C(=O)N[C@H]1CCc2c(F)cccc21)C3` [Example 92] displayed an IC50 of 0.9 nM.

For the compound `Cc1nnc2n1-c1sc3c(c1C(c1ccccc1Cl)=NC21CC1)C[C@H](C(=O)NC1(C(C)(C)O)CC1)C3` [Example 122, (13′S)-9′-(2-chlorophenyl)-N-[1-(2-hydroxy-propan-2-yl)cyclopropyl]-3′-methyl-16′-thia-2′,4′,5′,8′-tetraazaspiro[cyclopropane-1,7′-tetracyclo[8.6.0.0^2,6.0^11,15]hexadecane]-1′(10′),3′,5′,8′,11′(15′)-pentaene-13′-carboxamide], the IC50 is 37 nM.

Regarding `Cc1nnc2n1-c1sc3c(c1C(c1ccccc1Cl)=NC21CC1)C[C@H](C(=O)N1CCC(F)(F)CC1)C3` [Example 129, (13′S)-9′-(2-chlorophenyl)-13′-(4,4-difluoropiperidine-1-carbonyl)-3′-methyl-16′-thia-2′,4′,5′,8′-tetraazaspiro[cyclopropane-1,7′-tetracyclo[8.6.0.0^2,6.0^11,15]hexadecane]-1′(10′),3′,5′,8′,11′(15′)-pentaene], the IC50 was found to be 2.5 nM.

Compound `CCN(C(=O)[C@@H]1Cc2sc3c(c2C1)C(c1ccccc1Cl)=NC1(CC1)c1nnc(C)n1-3)C1CCOCC1` [Example 83] yielded an IC50 of 6.9 nM.

`Cc1nnc2n1-c1sc3c(c1C(c1ccccc1Cl)=NC21CC1)C[C@H](C(=O)N[C@H]1COCC(F)(F)C1)C3` [Example 116] showed an IC50 of 3.9 nM.

As to `CCCN(C(=O)[C@@H]1Cc2sc3c(c2C1)C(c1ccccc1Cl)=NC1(CC1)c1nnc(C)n1-3)C1CCOCC1` [Example 115, (13′S)-9′-(2-chlorophenyl)-3′-methyl-N-(oxan-4-yl)-N-propyl-16′-thia-2′,4′,5′,8′-tetraazaspiro-[cyclopropane-1,7′-tetracyclo[8.6.0.0^2,6.0^11,15]hexadecane]-1′(10′),3′,5′,8′,11′(15′)-pentaene-13′-carboxamide], half-maximal inhibition (IC50) required 25 nM.

With `COc1cc(C2(NC(=O)[C@@H]3Cc4sc5c(c4C3)C(c3ccccc3Cl)=NC3(CC3)c3nnc(C)n3-5)CC2)ccn1` [Example 85], the IC50 came to 3.9 nM. Against the preceding compound, the IC50 is about 6.4-fold lower.

The compound `Cc1nnc2n1-c1sc3c(c1C(c1ccccc1Cl)=NC21CC1)C[C@H](C(=O)N[C@H]1CC[C@H](C(F)(F)F)CC1)C3` [Example 15] returned an IC50 of 1 nM.

In the case of `CCCNC(=O)[C@@H]1Cc2sc3c(c2C1)C(c1ccccc1Cl)=NC1(CC1)c1nnc(C)n1-3` [Example 66], the IC50 was 2.4 nM.

Consider `CCOC(=O)N1CCC(N(C)C(=O)[C@@H]2Cc3sc4c(c3C2)C(c2ccccc2Cl)=NC2(CC2)c2nnc(C)n2-4)CC1` [Example 72], for which the IC50 turned out to be 4.9 nM. This IC50 is about 2-fold higher than that of the compound before.

In turn, `Cc1nnc2n1-c1sc3c(c1C(c1ccccc1Cl)=NC21CC1)C[C@H](C(=O)N[C@H]1CC[C@H](C(C)(C)O)CC1)C3` [Example 98] had an IC50 of 9.1 nM.

With `Cc1nnc2n1-c1sc3c(c1C(c1ccccc1Cl)=NC21CC1)C[C@H](C(=O)NC1(c2ccccc2)CC1)C3` [Example 46], the IC50 turned out to be 2 nM.

As for `Cc1nnc2n1-c1sc3c(c1C(c1ccccc1Cl)=NC21CC1)C[C@H](C(=O)NC1CCn2nccc2C1)C3` (some centres unmarked) [Example 77], the IC50 was determined as 10 nM. Against the preceding compound, the IC50 is about 5-fold higher.

Turning to `Cc1nnc2n1-c1sc3c(c1C(c1ccccc1Cl)=NC21CC1)C[C@H](C(=O)N[C@H]1C[C@H]2OCCC[C@@H]12)C3` [Example 93], the IC50 stood at 5.2 nM.

Still in this assay, the particulars now being: dedicated head-to-head comparison assay run: cyclopropylene vs di-methyl / cyclobutylene analogues.
As for `Cc1nnc2n1-c1sc3c(c1C(c1ccccc1Cl)=NC2(C)C)C[C@H](C(=O)N1CCOCC1)C3` [comparative example 1, reference compound], the midpoint of inhibition, the IC50, lay at 89 nM.

Take `Cc1nnc2n1-c1sc3c(c1C(c1ccccc1Cl)=NC2(C)C)C[C@H](C(=O)N[C@@H]1CCC(F)(F)C1)C3` [reference compound]: half-maximal inhibition (IC50) was put at 7.7 nM.

Turning to `Cc1nnc2n1-c1sc3c(c1C(c1ccccc1Cl)=NC2(C)C)C[C@H](C(=O)NC1CCc2cc(F)ccc21)C3` (some centres unmarked) [reference compound], 4.9 nM corresponded to half-maximal inhibition (IC50).

`Cc1nnc2n1-c1sc3c(c1C(c1ccccc1Cl)=NC21CC1)C[C@H](C(=O)NC1CCC1)C3` [Example 7, (13′S)-9′-(2-chlorophenyl)-N-cyclobutyl-3′-methyl-16′-thia-2′,4′,5′,8′-tetraazaspiro-[cyclopropane-1,7′-tetracyclo[8.6.0.0^2,6.0^11,15]-hexadecane]-1′(10′),3′,5′,8′,11′(15′)-pentaene-13′-carboxamide] displayed an IC50 of 2 nM.

The compound `Cc1noc(C)c1NC(=O)[C@@H]1Cc2sc3c(c2C1)C(c1ccccc1Cl)=NC(C)(C)c1nnc(C)n1-3` [reference compound] came in with an IC50 of 39 nM. Against the preceding compound, the IC50 is about 20-fold higher.

`Cc1nnc2n1-c1sc3c(c1C(c1ccccc1Cl)=NC21CC1)C[C@H](C(=O)N1CCC(F)(F)CC1)C3` [Example 129, (13′S)-9′-(2-chlorophenyl)-13′-(4,4-difluoropiperidine-1-carbonyl)-3′-methyl-16′-thia-2′,4′,5′,8′-tetraazaspiro[cyclopropane-1,7′-tetracyclo[8.6.0.0^2,6.0^11,15]hexadecane]-1′(10′),3′,5′,8′,11′(15′)-pentaene] came in with an IC50 of 2.6 nM. Against the preceding compound, the IC50 is about 15-fold lower.

Regarding `CCCNC(=O)[C@@H]1Cc2sc3c(c2C1)C(c1ccccc1Cl)=NC1(CC1)c1nnc(C)n1-3` [Example 66], the IC50 stood at 2.3 nM. The IC50 values of the last two compounds are within 1.5-fold of each other.

(Values after patent publication US11992494B2, “Cyclopentathiophene carboxamide derivatives as platelet activating factor receptor antagonists” (Boehringer Ingelheim International GmbH, priority 2021, dated 2024).)
